Read-outs that look alike come from different tables or passages of the source.
Assay: Plasma pharmacokinetics with loading dose and weekly or twice weekly maintenance dosing, fed (Example 5)
Type: in vivo, human
Settings: for AUC: read-out: Mean AUCτ (SD); for Tmax: read-out: Median tmax (min-max); for Cmax: read-out: Mean Cmax (SD)
Procedure: A pharmaceutical formulation comprising Compound (a) as described in Example 2 (SF2a/b) was administered as an oral dosage form, to healthy adult participants, in a fed state. Four dose regimens were applied: • Panel I (weekly dosing): 450 mg of Compound (a) twice a day (BID) for two days: on day 1 (D1) and on day 2 (D2) (loading dose); and then 900 mg once a week (Q7D), on day 3 (D3), day 10 (D10), day 17 (D17), and on day 24 (D24) (maintenance dose). • Panel II (biweekly dosing): 450 mg of Compound (a) twice a day (BID) for two days: on day 1 (D1) and on day 2 (D2); (loading dose) and then 450 mg once every 3 (Q3D) or 4 days (Q4D): on day 3 (D3), on day 6 (D6), on day 10 (D10), on day 13 (D13), on day 17 (D17), on day 20 (D20), on day 24 (D24), and on day 27 (D27), for a total of 900 mg each week administered through two doses of 450 mg each (maintenance dose). • Panel III (weekly dosing): 150 mg of Compound (a) twice a day (BID) for two days: on day 1 (D1) and on day 2 (D2) (loading dose); and then 300 mg once a week (Q7D): on day 3 (D3), day 10 (D10), day 17 (D17), and on day 24 (D24) (maintenance dose). • Panel IV (biweekly dosing): 150 mg of Compound (a) twice a day (BID) for two days: on day 1 (D1) and on day 2 (D2) (loading dose); and then 150 mg Q3D or Q4D: on day 3 (D3), on day 6 (D6), on day 10 (D10), on day 13 (D13), on day 17 (D17), on day 20 (D20), on day 24 (D24), and on day 27 (D27), for a total of 300 mg each week administered through two doses of 150 mg each (maintenance dose).
Oral dosage forms were administered together with approximately 240 mL of non-carbonated water under fed conditions, and were taken within 10 minutes after completion of normal standardized normal fat breakfast in the morning or after completion of normal standardized normal fat dinner in case of evening dosing. Intake of Compound (a) took place at around the same time each day. Intake of Compound (a) marked time 0 hours.
A standardized normal fat meal was served approximately 30 minutes before study drug intake. The standardized normal fat meal contained approximately 21 g of fat, 67 g of carbohydrates, 19 g of proteins resulting in around 533 kcal (an example meal is 4 slices of bread, 2 slices of ham or cheese, butter, jelly, and 1 or 2 cups (up to 355 mL) of decaffeinated coffee or tea with milk and/or sugar). The standardized normal fat meal was ingested entirely within 30 minutes or less. Within 10 minutes after completing the meal, but no more than 30 minutes after the start of the meal, study drug was administered. In case of Compound (a) intake in the evening, timing of standardized dinner was aligned to time of drug intake. […]
For Study Panel 1 only, additional whole blood samples were be collected on Days 1, 24, 25, 26, 38, 45, 51, and 59 using venipuncture. The whole blood samples were be used for the determination of Compound (a) whole blood concentrations and for determination of Compound (a) plasma concentrations. To determine Compound (a) venous whole blood concentrations, an aliquot of the whole blood sample was be pipetted onto the TASSO M-20 for better comparison with capillary whole blood samples collected by TASSO M-20. […]
Separation between metabolites and interfering endogenous compounds was achieved by injecting 2 μL sample extract onto an Acquity UPLC BEH C18 column (50×2.1 mm, 1.7 μm, Waters) at 50° C. and using 10 mM ammonium bicarbonate solution as mobile phase A, and methanol: acetonitrile (50:50, v/v) as mobile phase B. A gradient elution at a flow rate of 0.600 mL/min was applied using the following program: 35% B was increased to 90% B in 3 min, was further increased to 98% B at 3.01 min and held constant up to 4.00 min.
A Triple Quad 6500+ mass spectrometer (Sciex) equipped with a turbo ion spray source was used for analyte detection in positive ion mode using electrospray ionization. […]

[1] = Panel I (450 mg BID Days 1-2, then 900 mg Q7D; SF2a/b, fed), Day 2
[2] = Panel II (450 mg BID Days 1-2, then 450 mg Q3D/Q4D; SF2a/b, fed), Day 2
[3] = Panel III (150 mg BID Days 1-2, then 300 mg Q7D; SF2a/b, fed), Day 2
[4] = Panel IV (150 mg BID Days 1-2, then 150 mg Q3D/Q4D; SF2a/b, fed), Day 2
[5] = human, plasma, oral, 150 mg, Panel III (150 mg BID Days 1-2, then 300 mg Q7D; SF2a/b, fed), Day 1
[6] = human, plasma, oral, 150 mg, Panel III (150 mg BID Days 1-2, then 300 mg Q7D; SF2a/b, fed), Day 2
[7] = human, plasma, oral, 150 mg, Panel IV (150 mg BID Days 1-2, then 150 mg Q3D/Q4D; SF2a/b, fed), Day 3
[8] = human, plasma, oral, 150 mg, Panel IV (150 mg BID Days 1-2, then 150 mg Q3D/Q4D; SF2a/b, fed), Day 27

COc1cc(NC(C(=O)c2c[nH]c3ccc(OC(F)(F)F)cc23)c2ccc(Cl)cc2OC)cc(S(C)(=O)=O)c1 (centres unmarked) [Compound (a)]
Mean Cmin (SD) (Panel I (450 mg BID Days 1-2, then 900 mg Q7D; SF2a/b, fed), Day 1): 0.000 (0.000) ng/mL | Mean Cmin (SD) [1]: 2750 (1089) ng/mL | Mean Ctrough (SD) [1]: 2780 (1047) ng/mL | Mean Ctrough (SD) (Panel I (450 mg BID Days 1-2, then 900 mg Q7D; SF2a/b, fed), Day 3): 4370 (976) ng/mL | Mean Ctrough (SD) (Panel I (450 mg BID Days 1-2, then 900 mg Q7D; SF2a/b, fed), Day 10): 1965 (35.4) ng/mL | Mean Ctrough (SD) (Panel I (450 mg BID Days 1-2, then 900 mg Q7D; SF2a/b, fed), Day 17): 1500 (113) ng/mL | Mean Cmin (SD) (Panel II (450 mg BID Days 1-2, then 450 mg Q3D/Q4D; SF2a/b, fed), Day 1): 0.000 (0.000) ng/mL | Mean Cmin (SD) [2]: 2492 (307) ng/mL | Mean Ctrough (SD) [2]: 2503 (293) ng/mL | Mean Ctrough (SD) (Panel II (450 mg BID Days 1-2, then 450 mg Q3D/Q4D; SF2a/b, fed), Day 3): 4132 (401) ng/mL | Mean Ctrough (SD) (Panel II (450 mg BID Days 1-2, then 450 mg Q3D/Q4D; SF2a/b, fed), Day 6): 2708 (429) ng/mL | Mean Ctrough (SD) (Panel II (450 mg BID Days 1-2, then 450 mg Q3D/Q4D; SF2a/b, fed), Day 10): 2340 (577) ng/mL | Mean Ctrough (SD) (Panel II (450 mg BID Days 1-2, then 450 mg Q3D/Q4D; SF2a/b, fed), Day 13): 2343 (639) ng/mL | Mean Ctrough (SD) (Panel II (450 mg BID Days 1-2, then 450 mg Q3D/Q4D; SF2a/b, fed), Day 17): 2088 (693) ng/mL | Mean Ctrough (Panel II (450 mg BID Days 1-2, then 450 mg Q3D/Q4D; SF2a/b, fed), Day 20): 2270 (652) ng/mL | Mean Ctrough (SD) (Panel II (450 mg BID Days 1-2, then 450 mg Q3D/Q4D; SF2a/b, fed), Day 24): 2016 (847) ng/mL | Mean Ctrough (SD) (Panel II (450 mg BID Days 1-2, then 450 mg Q3D/Q4D; SF2a/b, fed), Day 27): 1928 (605) ng/mL | Mean Cmin (SD) (Panel III (150 mg BID Days 1-2, then 300 mg Q7D; SF2a/b, fed), Day 1): 0.000 (0.000) ng/mL | Mean Cmin (SD) [3]: 899 (151) ng/mL | Mean Ctrough (SD) [3]: 899 (151) ng/mL | Mean Ctrough (SD) (Panel III (150 mg BID Days 1-2, then 300 mg Q7D; SF2a/b, fed), Day 3): 1582 (298) ng/mL | Mean Ctrough (SD) (Panel III (150 mg BID Days 1-2, then 300 mg Q7D; SF2a/b, fed), Day 10): 775 (99.3) ng/mL | Mean Ctrough (SD) (Panel III (150 mg BID Days 1-2, then 300 mg Q7D; SF2a/b, fed), Day 17): 700 (98.1) ng/mL | Mean Cmin (SD) (Panel IV (150 mg BID Days 1-2, then 150 mg Q3D/Q4D; SF2a/b, fed), Day 1): 0.000 (0.000) ng/mL | Mean Cmin (SD) [4]: 892 (257) ng/mL | Mean Ctrough (SD) [4]: 892 (257) ng/mL | Mean Ctrough (SD) (Panel IV (150 mg BID Days 1-2, then 150 mg Q3D/Q4D; SF2a/b, fed), Day 3): 1472 (385) ng/mL | Mean Ctrough (SD) (Panel IV (150 mg BID Days 1-2, then 150 mg Q3D/Q4D; SF2a/b, fed), Day 6): 865 (236) ng/mL | Mean Ctrough (SD) (Panel IV (150 mg BID Days 1-2, then 150 mg Q3D/Q4D; SF2a/b, fed), Day 10): 681 (234) ng/mL | Mean Ctrough (SD) (Panel IV (150 mg BID Days 1-2, then 150 mg Q3D/Q4D; SF2a/b, fed), Day 13): 689 (238) ng/mL | Mean Ctrough (SD) (Panel IV (150 mg BID Days 1-2, then 150 mg Q3D/Q4D; SF2a/b, fed), Day 17): 570 (269) ng/mL | Mean Ctrough (Panel IV (150 mg BID Days 1-2, then 150 mg Q3D/Q4D; SF2a/b, fed), Day 20): 710 (236) ng/mL | Mean Ctrough (SD) (Panel IV (150 mg BID Days 1-2, then 150 mg Q3D/Q4D; SF2a/b, fed), Day 24): 612 (239) ng/mL | Mean Ctrough (SD) (Panel IV (150 mg BID Days 1-2, then 150 mg Q3D/Q4D; SF2a/b, fed), Day 27): 623 (237) ng/mL | maintaining exposures over time with weekly or twice weekly dosing (Panels I-IV, fed): feasible to maintain Compound (a) exposures over time | AUC [5]: 5680 ng·h/mL | Tmax [5]: 5 h | AUC [6]: 16800 ng·h/mL | Cmax [6]: 1810 ng/mL | Tmax [6]: 5 h | Cmax (human, plasma, oral, 150 mg, Panel IV (150 mg BID Days 1-2, then 150 mg Q3D/Q4D; SF2a/b, fed), Day 1): 753 ng/mL | AUC(0-t) (human, plasma, oral, 150 mg, Panel IV (150 mg BID Days 1-2, then 150 mg Q3D/Q4D; SF2a/b, fed), Day 3, read-out: Mean AUC24 h (SD)): 38600 ng·h/mL | AUC(0-t) (human, plasma, oral, 150 mg, Panel IV (150 mg BID Days 1-2, then 150 mg Q3D/Q4D; SF2a/b, fed), Day 3, read-out: Mean AUC72 h (SD)): 89200 ng·h/mL | Cmax [7]: 2120 ng/mL | Tmax [7]: 5 h | Cmax (human, plasma, oral, 150 mg, Panel IV (150 mg BID Days 1-2, then 150 mg Q3D/Q4D; SF2a/b, fed), Day 6): 1460 ng/mL | Cmax (human, plasma, oral, 150 mg, Panel IV (150 mg BID Days 1-2, then 150 mg Q3D/Q4D; SF2a/b, fed), Day 10): 1230 ng/mL | Cmax (human, plasma, oral, 150 mg, Panel IV (150 mg BID Days 1-2, then 150 mg Q3D/Q4D; SF2a/b, fed), Day 13): 1180 ng/mL | Cmax (human, plasma, oral, 150 mg, Panel IV (150 mg BID Days 1-2, then 150 mg Q3D/Q4D; SF2a/b, fed), Day 17, n = 3): 1210 ng/mL | Cmax (human, plasma, oral, 150 mg, Panel IV (150 mg BID Days 1-2, then 150 mg Q3D/Q4D; SF2a/b, fed), Day 20): 1200 ng/mL | Cmax (human, plasma, oral, 150 mg, Panel IV (150 mg BID Days 1-2, then 150 mg Q3D/Q4D; SF2a/b, fed), Day 24): 1260 ng/mL | AUC(0-t) (human, plasma, oral, 150 mg, Panel IV (150 mg BID Days 1-2, then 150 mg Q3D/Q4D; SF2a/b, fed), Day 27, read-out: Mean AUC24 h (SD)): 26000 ng·h/mL | AUC(0-t) (human, plasma, oral, 150 mg, Panel IV (150 mg BID Days 1-2, then 150 mg Q3D/Q4D; SF2a/b, fed), Day 27, read-out: Mean AUC72 h (SD)): 65800 ng·h/mL | AUC(0-t) (human, plasma, oral, 150 mg, Panel IV (150 mg BID Days 1-2, then 150 mg Q3D/Q4D; SF2a/b, fed), Day 27, read-out: Mean AUClast (SD)): 258000 ng·h/mL | AUC(0-inf) (human, plasma, oral, 150 mg, Panel IV (150 mg BID Days 1-2, then 150 mg Q3D/Q4D; SF2a/b, fed), Day 27, read-out: Mean AUC∞ (SD)): 274000 ng·h/mL | Cmax [8]: 1380 ng/mL | Tmax [8]: 5 h | AUC(0-t) (human, plasma, oral, 300 mg, Panel III (150 mg BID Days 1-2, then 300 mg Q7D; SF2a/b, fed), Day 3, read-out: Mean AUC24 h (SD)): 52400 ng·h/mL | AUC(0-t) (human, plasma, oral, 300 mg, Panel III (150 mg BID Days 1-2, then 300 mg Q7D; SF2a/b, fed), Day 3, read-out: Mean AUC72 h (SD)): 122000 ng·h/mL

Source: patent publication US20250281457A1, “TREATMENT OR PREVENTION OF DENGUE VIRAL INFECTION” (Janssen Pharmaceuticals, Inc., priority 2022, published 2025)
